Source: patent publication US20230212120A1, “SMALL MOLECULE INHIBITORS OF GRK5 AND GRK5 SUBFAMILY MEMBERS AND USES THEREOF” (The Regents of the University of Michigan, priority 2020, published 2023)
≈ marks a conversion by molar mass, not a printed value. Where “and” joins values, the source holds several entries; their conditions need not be identical. Equal values may be shown once. Read-outs that look alike come from different tables or passages of the source.

Key:
[1] = molecular target: T1, bovine GRK2 (Bos taurus, UniProt P21146); assay: radiometric GRK2 inhibition assay (tubulin phosphorylation)
T1 sequence (P21146 1-689): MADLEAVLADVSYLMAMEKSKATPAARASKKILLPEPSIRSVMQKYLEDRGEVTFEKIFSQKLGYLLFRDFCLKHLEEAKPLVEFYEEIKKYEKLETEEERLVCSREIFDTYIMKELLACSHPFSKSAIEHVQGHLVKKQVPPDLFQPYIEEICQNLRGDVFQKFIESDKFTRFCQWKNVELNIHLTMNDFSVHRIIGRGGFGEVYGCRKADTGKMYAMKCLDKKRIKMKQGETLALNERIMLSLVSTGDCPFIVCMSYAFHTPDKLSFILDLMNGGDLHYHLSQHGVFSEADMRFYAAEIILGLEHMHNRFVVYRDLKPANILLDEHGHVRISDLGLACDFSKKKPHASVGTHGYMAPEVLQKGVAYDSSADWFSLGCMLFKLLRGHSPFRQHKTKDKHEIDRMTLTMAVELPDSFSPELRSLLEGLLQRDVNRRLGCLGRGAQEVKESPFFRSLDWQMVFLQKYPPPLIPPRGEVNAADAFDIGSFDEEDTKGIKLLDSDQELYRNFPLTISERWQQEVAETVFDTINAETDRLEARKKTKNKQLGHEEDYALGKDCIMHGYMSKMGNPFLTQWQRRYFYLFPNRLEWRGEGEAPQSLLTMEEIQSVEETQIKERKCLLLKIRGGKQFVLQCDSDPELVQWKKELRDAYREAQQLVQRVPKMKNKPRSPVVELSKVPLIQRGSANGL

[2] = molecular target: PKA (Homo sapiens, UniProt P17612); assay: PKA inhibition assay (ADP-Glo); format: biochemical
Description: The PKA inhibition assays were performed with the ADP-Glo system (Promega Corporation) according to the manufactory's instruction. […] After the initial reaction, ADP-Glo reagent was added to the reaction and allowed to incubate for an additional 40 min. Lastly, the kinase detection reagent was added and allowed to incubate for 30 min, and the luminescence was measured with a FlexStation 3 Multi-mode Microplate Reader (Molecular Devices). All data was analyzed in the same way as GRK inhibition assay. Experiments were performed three times in duplicate.
Standard control compounds are run during each assay to assess consistency across time, experimenters, and subtle changes in assay conditions that are sometimes required to keep some of the compounds soluble and disperse (such as through addition of DDM or 3% DMSO). Paroxetine were used as controls for GRK2 and PKA, and CCG215022 for GRK5.

[3] = Thermodynamic solubility (Analiza Inc.); format: physicochemical; settings: for pH After Assay / solubility thermodynamic: Water; for pH After Assay: solubility assay; for solubility thermodynamic: n=1
Excerpt: Experimental data collected by Analiza Inc. Experimental values represent an average of n=1 experiments.

[4] = molecular target: GRK5 (Homo sapiens, UniProt P34947); assay: radiometric GRK5 inhibition assay (tubulin phosphorylation)
GRK5, sequence (P34947 whole entry): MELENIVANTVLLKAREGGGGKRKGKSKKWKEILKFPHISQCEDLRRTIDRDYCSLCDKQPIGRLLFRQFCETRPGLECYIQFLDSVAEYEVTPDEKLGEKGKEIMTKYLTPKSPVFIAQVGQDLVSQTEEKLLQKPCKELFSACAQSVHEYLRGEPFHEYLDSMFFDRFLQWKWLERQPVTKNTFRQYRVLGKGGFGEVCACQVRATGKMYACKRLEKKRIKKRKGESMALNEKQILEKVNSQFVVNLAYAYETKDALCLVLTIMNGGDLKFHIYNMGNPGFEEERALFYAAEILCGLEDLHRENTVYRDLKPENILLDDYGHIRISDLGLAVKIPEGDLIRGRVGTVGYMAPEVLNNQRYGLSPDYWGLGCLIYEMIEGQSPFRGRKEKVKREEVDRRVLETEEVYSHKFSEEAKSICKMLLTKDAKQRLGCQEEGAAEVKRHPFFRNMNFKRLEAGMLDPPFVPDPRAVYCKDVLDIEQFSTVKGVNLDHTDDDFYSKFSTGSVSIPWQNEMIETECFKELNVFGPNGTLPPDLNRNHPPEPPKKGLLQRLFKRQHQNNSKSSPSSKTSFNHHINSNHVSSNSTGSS

[5] = read-out: GRK2 IC50, Table 1, μM ± SD
[6] = read-out: GRK2 IC50, Table 2, μM ± SD

C=CC(=O)Nc1c(C)[nH]c(/C=C2\C(=O)Nc3ccc(C(=O)N[C@H](C)c4ccccc4)cc32)c1C [Compound 9b, (R,Z)-3-((4-acrylamido-3,5-dimethyl-1H-pyrrol-2-yl)methylene)-2-oxo-N-(1-phenylethyl)indoline-5-carboxamide]
IC50 [1, 5]: 87 ± 30 µM

C=CCNC(=O)c1c(C)[nH]c(/C=C2\C(=O)Nc3ccc(C(=O)N[C@H](C)c4ccccc4)cc32)c1C [Compound 5d, (R,Z)-3-((4-(allylcarbamoyl)-3,5-dimethyl-1H-pyrrol-2-yl)methylene)-2-oxo-N-(1-phenylethyl)indoline-5-carboxamide]
IC50 ([2]; Table 1, μM ± SD): > 250 µM | IC50 [1, 5]: 22 ± 10 µM

Cc1[nH]c(/C=C2\C(=O)Nc3ccc(C(=O)N[C@H](C)c4ccccc4)cc32)c(C)c1[N+](=O)[O-] [Compound 7a, (R,Z)-3-((3,5-dimethyl-4-nitro-1H-pyrrol-2-yl)methylene)-2-oxo-N-(1-phenylethyl)indoline-5-carboxamide]
IC50 [1, 5]: 7.2 ± 3 µM

CCN(CC)CCNC(=O)c1c(C)[nH]c(/C=C2\C(=O)Nc3ccc(C(=O)N[C@H](C)c4ccccc4)cc32)c1C [Compound 5a, (R,Z)-3-((4-((2-(diethylamino)ethyl)carbamoyl)-3,5-dimethyl-1H-pyrrol-2-yl)methylene)-2-oxo-N-(1-phenylethyl)indoline-5-carboxamide]
IC50 ([2]; Table 1, μM ± SD): > 250 µM | IC50 [1, 5]: 1.1 ± 0.7 µM

Cc1ccc([C@@H](C)NC(=O)c2ccc3c(c2)/C(=C/c2[nH]c(C)c(NC(=O)CCl)c2C)C(=O)N3)cc1 [Compound 9n, (R,Z)-3-((4-(2-chloroacetamido)-3,5-dimethyl-1H-pyrrol-2-yl)methylene)-2-oxo-N-(1-(p-tolyl)ethyl)indoline-5-carboxamide]
pH After Assay [3]: 2.5 | solubility thermodynamic ([3]; thermodynamic from solid): 252 µM and 124 µg/mL | GRK2/GRK5 ([4]; Table 2, ratio of IC50 values): 3 | IC50 [1, 6]: 2.1 ± 1 µM

Cc1[nH]c(/C=C2\C(=O)Nc3ccc(C(=O)N[C@H](C)c4ccc(F)cc4)cc32)c(C)c1NC(=O)CBr [Compound 9p, (R,Z)-3-((4-(2-bromoacetamido)-3,5-dimethyl-1H-pyrrol-2-yl)methylene)-N-(1-(4-fluorophenyl)ethyl)-2-oxoindoline-5-carboxamide]
IC50 [1, 6]: 3.6 ± 2 µM

Cc1[nH]c(/C=C2\C(=O)Nc3ccc(C(=O)N[C@H](C)c4cccc(Cl)c4)cc32)c(C)c1NC(=O)CCl [Compound 9m, (R,Z)-3-((4-(2-chloroacetamido)-3,5-dimethyl-1H-pyrrol-2-yl)methylene)-N-(1-(3-chlorophenyl)ethyl)-2-oxoindoline-5-carboxamide]
IC50 ([2]; Table 2, μM ± SD): > 250 µM | IC50 [1, 6]: 19 ± 10 µM

CC1=C(C(=O)Nc2ccc3[nH]ncc3c2)C(c2ccc(F)c(C(=O)NCc3ccccn3)c2)NC(=O)N1 (centres unmarked) [CCG 215022, reference compound]
IC50 ([2]; Table 1, μM ± SD): > 250 µM

Cc1[nH]c(/C=C2\C(=O)Nc3ccc(C(=O)N[C@H](C)c4ccccc4)cc32)c(C)c1NC(=O)C1CO1 (stereo partly drawn) [Compound 10l, (Z)-3-((3,5-dimethyl-4-(oxirane-2-carboxamido)-1H-pyrrol-2-yl)methylene)-2-oxo-N—((R)-1-phenylethyl)indoline-5-carboxamide]
IC50 [1]: > 250 µM

Cc1[nH]c(/C=C2\C(=O)Nc3ccc(C(=O)N[C@H](C)c4ccc(Cl)cc4)cc32)c(C)c1NC(=O)CCl [Compound 9o, (R,Z)-3-((4-(2-chloroacetamido)-3,5-dimethyl-1H-pyrrol-2-yl)methylene)-N-(1-(4-chlorophenyl)ethyl)-2-oxoindoline-5-carboxamide]
pH After Assay [3]: 4 | solubility thermodynamic ([3]; thermodynamic from solid): 205 µM and 105 µg/mL | IC50 [1, 6]: 0.7 ± 0.2 µM

Cc1[nH]c(/C=C2\C(=O)Nc3ccc(C(=O)N[C@H](C)c4ccccn4)cc32)c(C)c1NC(=O)CCl [Compound 9l, (R,Z)-3-((4-(2-chloroacetamido)-3,5-dimethyl-1H-pyrrol-2-yl)methylene)-2-oxo-N-(1-(pyridin-2-yl)ethyl)indoline-5-carboxamide]
solubility thermodynamic [3]: 262 µM (≈ 125 µg/mL) | pH After Assay [3]: 4 | IC50 [1, 6]: 9.6 ± 5 µM

C=CS(=O)(=O)Nc1c(C)[nH]c(/C=C2\C(=O)Nc3ccc(C(=O)N[C@H](C)c4ccccc4)cc32)c1C [Compound 9c, (R,Z)-3-((3,5-dimethyl-4-(vinylsulfonamido)-1H-pyrrol-2-yl)methylene)-2-oxo-N-(1-phenylethyl)indoline-5-carboxamide]
IC50 [1, 5]: 280 ± 110 µM

Cc1[nH]c(/C=C2\C(=O)Nc3ccc(C(=O)NC4(c5ccccc5)COC4)cc32)c(C)c1NC(=O)CCl [Compound 9t, (Z)-3-((4-(2-chloroacetamido)-3,5-dimethyl-1H-pyrrol-2-yl)methylene)-2-oxo-N-(3-phenyloxetan-3-yl)indoline-5-carboxamide]
IC50 ([2]; Table 2, μM ± SD): 69 ± 10 µM | IC50 [1, 6]: 15 ± 7 µM

Cc1cccc([C@@H](C)NC(=O)c2ccc3c(c2)/C(=C/c2[nH]c(C)c(NC(=O)CCl)c2C)C(=O)N3)c1 [Compound 9i, (R,Z)-3-((4-(2-chloroacetamido)-3,5-dimethyl-1H-pyrrol-2-yl)methylene)-2-oxo-N-(1-(m-tolyl)ethyl)indoline-5-carboxamide]
IC50 ([2]; Table 2, μM ± SD): > 250 µM | GRK2/GRK5 ([4]; Table 2, ratio of IC50 values): 360 | IC50 [1, 6]: 11 ± 6 µM

Cc1[nH]c(/C=C2\C(=O)Nc3ccc(C(=O)N[C@H](C)c4ccncc4)cc32)c(C)c1NC(=O)CCl [Compound 9k, (R,Z)-3-((4-(2-chloroacetamido)-3,5-dimethyl-1H-pyrrol-2-yl)methylene)-2-oxo-N-(1-(pyridin-4-yl)ethyl)indoline-5-carboxamide]
aqueous solubility relative to 9e ([3]; compared to 9e): less than 2 fold | IC50 [1, 6]: 1.7 ± 2 µM

Cc1[nH]c(/C=C2\C(=O)Nc3ccc(C(=O)N[C@H](C)c4ccccc4)cc32)c(C)c1NC(=O)/C(C#N)=C/C(C)(C)C [Compound 10a, (Z)-3-((4-((E)-2-cyano-4,4-dimethylpent-2-enamido)-3,5-dimethyl-1H-pyrrol-2-yl)methylene)-2-oxo-N—((R)-1-phenylethyl)indoline-5-carboxamide]
IC50 [1, 5]: 120 ± 80 µM

Cc1[nH]c(/C=C2\C(=O)Nc3ccc(C(=O)N[C@H](C)c4ccccc4)cc32)c(C)c1NC(=O)/C=C/CN(C)C [Compound 9f, (Z)-3-((4-((E)-4-(dimethylamino)but-2-enamido)-3,5-dimethyl-1H-pyrrol-2-yl)methylene)-2-oxo-N—((R)-1-phenylethyl)indoline-5-carboxamide]
pH After Assay [3]: 5 | solubility thermodynamic ([3]; thermodynamic from solid): 125 µM and 64 µg/mL | IC50 [1, 5]: 17 ± 10 µM

C=CCCNC(=O)c1c(C)[nH]c(/C=C2\C(=O)Nc3ccc(C(=O)N[C@H](C)c4ccccc4)cc32)c1C [Compound 5f, (R,Z)-3-((4-(but-3-en-1-ylcarbamoyl)-3,5-dimethyl-1H-pyrrol-2-yl)methylene)-2-oxo-N-(1-phenylethyl)indoline-5-carboxamide]
IC50 [4]: 1.9 ± 0.05 µM | GRK2/GRK5 ([4]; Table 1, ratio of IC50 values): 330 | IC50 [1, 5]: 630 ± 200 µM

Cc1[nH]c(/C=C2\C(=O)Nc3ccc(C(=O)N[C@H](C)c4ccccc4)cc32)c(C)c1NC(=O)C(O)CCl (stereo partly drawn) [Compound 9h, (Z)-3-((4-(3-chloro-2-hydroxypropanamido)-3,5-dimethyl-1H-pyrrol-2-yl)methylene)-2-oxo-N—((R)-1-phenylethyl)indoline-5-carboxamide]
IC50 ([2]; Table 1, μM ± SD): > 250 µM | IC50 [1, 5]: 6.7 ± 5 µM

Fc1ccc([C@@H]2CCNC[C@H]2COc2ccc3c(c2)OCO3)cc1 [paroxetine, reference compound]
IC50 ([2]; Table 1, μM ± SD): 850 ± 400 µM

CCN(CC)CCNC(=O)c1c(C)[nH]c(/C=C2\C(=O)Nc3ccc(C(=O)N[C@@H](C)c4ccccc4)cc32)c1C [Compound 5b, (S,Z)-3-((4-((2-(diethylamino)ethyl)carbamoyl)-3,5-dimethyl-1H-pyrrol-2-yl)methylene)-2-oxo-N-(1-phenylethyl)indoline-5-carboxamide]
IC50 [1, 5]: 44 ± 18 µM

Cc1[nH]c(/C=C2\C(=O)Nc3ccc(C(=O)N[C@H](C)c4ccccc4)cc32)c(C)c1NC(=O)CCl [Compound 9e, (R,Z)-3-((4-(2-chloroacetamido)-3,5-dimethyl-1H-pyrrol-2-yl)methylene)-2-oxo-N-(1-phenylethyl)indoline-5-carboxamide]
IC50 ([2]; Table 1, μM ± SD): > 250 µM | pH After Assay [3]: 5 | solubility thermodynamic ([3]; thermodynamic from solid): 75.1 µM and 35.7 µg/mL | IC50 [1, 5]: 350 ± 100 µM
